Laboratory results as given in ChEMBL document CHEMBL6087474, “Discovery of an Efficacious RET PROTAC Degrader with Enhanced Antiproliferative Activity against Resistant Cancer Cells Harboring RET Solvent-Front Mutations” (J Med Chem, 2025).
Calls of active or inactive are those of the source. The rule behind the calls is not given here.

What was measured:
[1] = target: Protein cereblon/Eukaryotic peptide chain release factor GTP-binding subunit ERF3A (Mus musculus) (UniProt Q8C7D2+Q8R050); test: PROTAC activity at CRBN/GSPT1 in mouse BaF3 cells overexpressing KIF5B-RET assessed as induction of GSPT1 degradation at 10 to 1000 nM incubated for 6 hrs by Western blot analysis; type: cell-based; conditions: dose 10-1000 nM
[2] = Effect on Shc protein level in mouse BaF3 cells stably expressing wildtype KIF5B-RET assessed as fold change at 300 nM measured after 6 hrs by Western blot analysis; type: functional
[3] = Effect on Shc protein level in mouse BaF3 cells stably expressing KIF5B-RET-G810C mutant assessed as fold change at 300 nM measured after 6 hrs by Western blot analysis (reference value: 1); type: functional
[4] = Induction of apoptosis in mouse BaF3 cells stably expressing wildtype KIF5B-RET fusion protein assessed as early apoptotic cells at 33.3 nM measured after 48 hrs by Annexin V-FITC/7-AAD staining based flow cytometric analysis (reference value: 9.92 %); type: functional
[5] = test system: BaF3; test: Antitumor activity against mouse BaF3 cells stably expressing KIF5B-RET-G810C mutant implanted in male BALB/c mouse model assessed as tumor growth inhibition at 10 mg/kg, ip administered daily for 14 days relative to control; type: functional; conditions: BaF3, 336 h, time 14 day, read-out: TGI
[6] = test system: BaF3; test: PROTAC activity at CRBN/KIF5B-RET (unknown origin) expressed in mouse BaF3 cells assessed as induction of RET degradation at 10 nM measured after 6 hrs by Western blot analysis relative to control; type: cell-based
[7] = Induction of apoptosis in mouse BaF3 cells stably expressing wildtype KIF5B-RET fusion protein assessed as viable cells at 300 nM measured after 48 hrs by Annexin V-FITC/7-AAD staining based flow cytometric analysis (reference value: 86.65 %); type: functional; conditions: read-out: Activity
[8] = Induction of apoptosis in mouse BaF3 cells stably expressing KIF5B-RET-G810C mutant assessed as necrotic cells at 900 nM measured after 48 hrs by Annexin V-FITC/7-AAD staining based flow cytometric analysis (reference value: 2.89 %); type: functional
[9] = test system: BaF3; test: Antiproliferative activity against mouse BaF3 cells stably expressing CCDC6-RET incubated for 72 hrs by CCK-8 assay; type: functional, cell-based; conditions: BaF3, 72 h
[10] = Effect on Shc protein level in mouse BaF3 cells stably expressing KIF5B-RET-G810C mutant assessed as fold change at 33.3 nM measured after 6 hrs by Western blot analysis (reference value: 1); type: functional
[11] = Effect on Shc protein level in mouse BaF3 cells stably expressing KIF5B-RET-V804M mutant assessed as fold change at 11.1 nM measured after 6 hrs by Western blot analysis (reference value: 1); type: functional
[12] = test system: BaF3; test: Inhibition of RET (unknown origin) phosphorylation in mouse BaF3 cells stably expressing KIF5B-RET-G810R mutant at 333.3 to 3000 nM measured after 6 hrs by Western blot analysis; type: cell-based; conditions: Homo sapiens, dose 333.3-3000 nM
[13] = Effect on Shc protein level in mouse BaF3 cells stably expressing KIF5B-RET-V804M mutant assessed as fold change at 300 nM measured after 6 hrs by Western blot analysis (reference value: 1); type: functional
[14] = test system: BaF3; test: PROTAC activity at CRBN/KIF5B-RET (unknown origin) expressed in mouse BaF3 cells assessed as induction of RET degradation at 100 nM measured after 6 hrs by Western blot analysis relative to control; type: cell-based
[15] = Effect on RET protein level in mouse BaF3 cells stably expressing wildtype KIF5B-RET assessed as fold change at 11.1 nM measured after 6 hrs by Western blot analysis (reference value: 1); type: functional
[16] = Potency index, ratio of selpercatinib IC50 to test compound IC50 for antiproliferative activity against mouse BaF3 cells stably expressing KIF5B-RET-G810C mutant incubated for 72 hrs by CCK-8 assay; type: functional
[17] = Effect on RET protein level in mouse BaF3 cells stably expressing wildtype KIF5B-RET assessed as fold change at 300 nM measured after 6 hrs by Western blot analysis (reference value: 1); type: functional
[18] = test system: BaF3; test: Antiproliferative activity against mouse BaF3 cells stably expressing KIF5B-RET fusion protein incubated for 72 hrs by CCK-8 assay; type: functional, cell-based; conditions: BaF3, 72 h
[19] = Induction of apoptosis in mouse BaF3 cells stably expressing wildtype KIF5B-RET fusion protein assessed as late apoptotic cells at 11.1 nM measured after 48 hrs by Annexin V-FITC/7-AAD staining based flow cytometric analysis (reference value: 1.03 %); type: functional
[20] = Induction of apoptosis in mouse BaF3 cells stably expressing KIF5B-RET-G810C mutant assessed as late apoptotic cells at 900 nM measured after 48 hrs by Annexin V-FITC/7-AAD staining based flow cytometric analysis (reference value: 1.96 %); type: functional
[21] = Effect on RET protein level in mouse BaF3 cells stably expressing KIF5B-RET-V804M mutant assessed as fold change at 11.1 nM measured after 6 hrs by Western blot analysis (reference value: 1); type: functional
[22] = Induction of apoptosis in mouse BaF3 cells stably expressing wildtype KIF5B-RET fusion protein assessed as viable cells at 33.3 nM measured after 48 hrs by Annexin V-FITC/7-AAD staining based flow cytometric analysis (reference value: 86.65 %); type: functional; conditions: read-out: Activity
[23] = test system: BaF3; test: Antiproliferative activity against mouse BaF3 cells stably expressing CCDC6-RET-G810C mutant incubated for 72 hrs by CCK-8 assay; type: functional, cell-based; conditions: BaF3, 72 h
[24] = Induction of apoptosis in mouse BaF3 cells stably expressing wildtype KIF5B-RET fusion protein assessed as necrotic cells at 300 nM measured after 48 hrs by Annexin V-FITC/7-AAD staining based flow cytometric analysis (reference value: 2.40 %); type: functional
[25] = test system: BaF3; test: PROTAC activity at CRBN/KIF5B-RET-G810R mutant (unknown origin) expressed in mouse BaF3 cells assessed as induction of RET degradation at 300 nM measured after 6 hrs by Western blot analysis relative to control; type: cell-based; conditions: Homo sapiens
[26] = PROTAC activity at CRBN/KIF5B-RET-V804M mutant (unknown origin) expressed in mouse BaF3 cells assessed as induction of RET degradation measured after 6 hrs by Western blot analysis; type: cell-based; conditions: BaF3, 6 h
[27] = Effect on RET protein level in mouse BaF3 cells stably expressing wildtype KIF5B-RET assessed as fold change at 33.3 nM measured after 6 hrs by Western blot analysis (reference value: 1); type: functional
[28] = PROTAC activity at CRBN/KIF5B-RET-G810C mutant (unknown origin) expressed in mouse BaF3 cells assessed as induction of RET degradation measured after 6 hrs by Western blot analysis; type: cell-based; conditions: BaF3, 6 h
[29] = Effect on RET protein level in mouse BaF3 cells stably expressing KIF5B-RET-G810C mutant assessed as fold change at 11.1 nM measured after 6 hrs by Western blot analysis (reference value: 1); type: functional
[30] = Effect on RET protein level in mouse BaF3 cells stably expressing KIF5B-RET-G810R mutant assessed as fold change at 33.3 nM measured after 6 hrs by Western blot analysis (reference value: 1); type: functional

Protein cereblon/Eukaryotic peptide chain release factor GTP-binding subunit ERF3A (Mus musculus), sequence (Q8C7D2 whole entry, looked up): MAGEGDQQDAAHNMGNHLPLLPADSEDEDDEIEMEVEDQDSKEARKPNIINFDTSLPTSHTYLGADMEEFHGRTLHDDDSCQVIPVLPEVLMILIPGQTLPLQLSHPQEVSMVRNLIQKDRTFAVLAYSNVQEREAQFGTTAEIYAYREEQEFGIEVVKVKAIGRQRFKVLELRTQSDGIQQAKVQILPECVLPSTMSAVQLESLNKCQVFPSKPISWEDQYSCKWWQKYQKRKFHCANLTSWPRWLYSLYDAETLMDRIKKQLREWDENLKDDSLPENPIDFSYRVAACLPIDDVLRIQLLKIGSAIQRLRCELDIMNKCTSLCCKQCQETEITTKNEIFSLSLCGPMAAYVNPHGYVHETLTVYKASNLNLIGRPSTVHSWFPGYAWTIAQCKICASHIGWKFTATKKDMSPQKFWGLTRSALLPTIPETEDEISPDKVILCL
Protein cereblon/Eukaryotic peptide chain release factor GTP-binding subunit ERF3A (Mus musculus), sequence (Q8R050 whole entry, looked up): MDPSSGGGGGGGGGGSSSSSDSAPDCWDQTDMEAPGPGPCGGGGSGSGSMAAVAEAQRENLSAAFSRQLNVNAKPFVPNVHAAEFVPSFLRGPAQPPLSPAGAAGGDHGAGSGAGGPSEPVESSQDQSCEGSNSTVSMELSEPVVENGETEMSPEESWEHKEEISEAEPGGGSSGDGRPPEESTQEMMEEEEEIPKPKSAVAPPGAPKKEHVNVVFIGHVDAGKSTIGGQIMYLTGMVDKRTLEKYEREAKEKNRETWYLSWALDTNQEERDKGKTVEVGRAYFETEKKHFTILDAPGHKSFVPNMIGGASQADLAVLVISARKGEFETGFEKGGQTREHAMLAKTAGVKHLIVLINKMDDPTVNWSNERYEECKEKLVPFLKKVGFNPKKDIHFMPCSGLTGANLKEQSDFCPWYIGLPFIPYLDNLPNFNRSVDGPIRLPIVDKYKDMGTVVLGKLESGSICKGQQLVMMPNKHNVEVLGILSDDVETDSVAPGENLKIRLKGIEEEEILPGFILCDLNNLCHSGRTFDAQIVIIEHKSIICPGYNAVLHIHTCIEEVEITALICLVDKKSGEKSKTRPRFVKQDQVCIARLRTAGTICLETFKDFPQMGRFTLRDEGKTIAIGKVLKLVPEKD

SMILES: COc1ccc(CN2C3CC2CN(c2ccc(-c4cc(-c5cnn(C6CCN(CCCCCC#Cc7cccc8c7CN(C7CCC(=O)NC7=O)C8=O)CC6)c5)cn5ncc(C#N)c45)cn2)C3)cn1 (stereo not given)
- Activity [1]: inactive
- fold change (FC) [2]: 1
- fold change (FC) [3]: 1
- Activity [4]: 20.96%
- inhibition in vivo at 10 mg/kg [5]: 31.6%
- Activity [6]: 60%
- viability at 0.3 µM [7]: 50.2%
- Activity [8]: 1.26%
- IC50 [9]: 10 nM
- fold change (FC) [10]: 1
- fold change (FC) [11]: 1
- inhibition [12]: Active
- fold change (FC) [13]: 1
- Activity [14]: 73%
- fold change (FC) [15]: 0.5
- Ratio IC50 [16]: ~14
- fold change (FC) [17]: 0.2
- IC50 [18]: 10 nM
- Activity [19]: 1.84%
- Activity [20]: 3.71%
- fold change (FC) [21]: 0.7
- viability at 0.0333 µM [22]: 74.2%
- IC50 [23]: 40 nM
- Activity [24]: 0.42%
- Activity [25]: 43%
- DC50 [26]: 17.2 nM
- fold change (FC) [27]: 0.3
- DC50 [28]: 73.8 nM
- fold change (FC) [29]: 0.7
- fold change (FC) [30]: 0.9
